From article PMC7828111, “In Search for Multi-Target Ligands as Potential Agents for Diabetes Mellitus and Its Complications—A Structure-Activity Relationship Study on Inhibitors of Aldose Reductase and Protein Tyrosine Phosphatase 1B” (Molecules, 2021)

Legend:
human recombinant PTP1B [1] = molecular target: T1, human recombinant PTP1B (Homo sapiens, UniProt P18031); experiment: Inhibition of human recombinant PTP1B, p-nitrophenyl phosphate as substrate; assay type: biochemical; details: for IC50: human recombinant PTP1B, mean ± S.E.M; for IC50 / remaining activity at 50 µM: pNPP as substrate; for remaining activity at 50 µM: residual activity, read-out: PTP1B % enzyme residual activity at the indicated concentration
T1 sequence (P18031 1-435): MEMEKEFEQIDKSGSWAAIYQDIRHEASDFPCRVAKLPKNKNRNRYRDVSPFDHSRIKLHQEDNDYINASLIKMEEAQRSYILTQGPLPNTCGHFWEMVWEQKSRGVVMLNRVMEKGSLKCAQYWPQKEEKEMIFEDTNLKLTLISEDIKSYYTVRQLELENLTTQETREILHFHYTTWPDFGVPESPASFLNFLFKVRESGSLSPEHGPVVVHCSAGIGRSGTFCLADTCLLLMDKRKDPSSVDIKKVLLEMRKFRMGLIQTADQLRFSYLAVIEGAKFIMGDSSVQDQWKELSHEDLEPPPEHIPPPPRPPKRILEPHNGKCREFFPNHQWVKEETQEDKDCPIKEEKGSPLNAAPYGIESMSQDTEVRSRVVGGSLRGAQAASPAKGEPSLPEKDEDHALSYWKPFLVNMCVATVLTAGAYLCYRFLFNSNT
Method: PTP1B activity was determined as follow. […] After an appropriate interval time, the reaction was stopped diluting assay solution with 2 mL of KOH 0.1 M. The amount of p-nitrophenol released was determined measuring the absorbance of the solution at 400 nm using a spectrophotometer and a 1-cm optical pathlength (εmM of p-nitrophenol is 18). The IC50 value was determined measuring the pNPP hydrolysis rate in the presence of increasing inhibitor concentration. For each inhibitor, 15–16 different concentrations were used. All tests were carried out in triplicate and data obtained were normalized respect to control sample.

human recombinant AR [2] = molecular target: T2, human recombinant AR (Homo sapiens, UniProt P15121); experiment: Inhibition of human recombinant AR, L-idose as substrate (NADPH oxidation at 340 nm); assay type: biochemical; details: for Inhibition of human AR (in words): at concentrations up to 10 μM; for IC50: human recombinant AR, 2 mM L-idose as substrate, mean ± S.E.M; for AR inhibitory potency relative to the corresponding acetic acid analogues 1, 2: less potent than acetic acid analogue, analogue data ref 5
T2 construct: made in house; host or cells: E. coli BL21(DE3)pLysS
Method: The human recombinant AR was expressed in BL21(DE3)pLysS E. coli cells and purified to electrophoretic homogeneity as previously described. The purified enzyme (specific activity 5.0 U/mg) was stored at −80 °C in 10 mM sodium phosphate buffer pH 7.0 containing 2 mM dithiothreitol and 30% (w/v) glycerol. AR activity was determined at 37 °C as previously described evaluating the decrease in absorbance at 340 nm linked to NADPH oxidation. […] One unit of enzyme activity is the amount that catalyzes the conversion of 1 μmol of substrate/min in the above assay conditions.
All compounds tested as aldose reductase inhibitors were dissolved in DMSO and added to the assay mixture containing 8 mU of purified AR. The reaction was started by addition of the substrate. The DMSO concentration in all the assays was kept constant at 0.5% (v/v) in order to avoid effects on AR activity.
The IC50 values were determined by nonlinear regression analysis using Prism GraphPad 6.0 fitting experimental data to the following equation:(1) vi/v0= Max−Min/1+( I/IC50)^slope +Min
In the equation, vi/v0, represents the ratio between the activity measured in the presence of the inhibitor and the activity measured in the absence of inhibitor; Max and Min represent the expected maximal and minimal value of the activity and were fixed at 1 and zero, respectively. Slope, which describes the steepness of curve in the transition region, was fixed at −1. For each compound, at least five different concentrations of inhibitor in the triplicate assay were analyzed.

bovine lens AR = test system: bovine lens AR; set-up: method as in PMID 15781392; details: glyceraldehyde as substrate; cited from earlier work
human recombinant PTP1B [3] = molecular target: T1, human recombinant PTP1B; experiment: Reversibility assay (dilution test) with PTP1B; assay type: biochemical; details: saturating inhibitor, 60 min 37 °C, diluted 400 folds
Method: An aliquot of the enzyme was incubated for 60 min at 37 °C in the presence of saturating amount of PTP1B inhibitor. After this time, an aliquot of the enzyme was withdrawn and diluted 400 folds in the assay buffer containing 2.5 mM of pNPP. After 15 min, the reaction was stopped by adding 1 mL of KOH 0.2 M. The amount of pNP released was calculating measuring the absorbance at 400 nm of solutions using a spectrophotometer. Data obtained were normalized respect to control tests, which was carried out diluting the enzyme with DMSO, the solvent used to dissolve all compounds. Data reported in the figure represent the mean value +/− S.E.M. (n = 3).

human recombinant PTP1B [4] = molecular target: T1, human recombinant PTP1B; experiment: Kinetic analysis of PTP1B inhibition (Lineweaver-Burk plot); assay type: biochemical; details: pNPP as substrate
Method: Kinetic analyses were carried out to dissect action mechanism of compound 4e and 4f. Briefly, the main kinetic parameters, Km and Vmax, were calculated measuring the initial hydrolysis rate of PTP1B in the presence of increasing pNPP concentration (seven different concentrations in the 0.5–25 mM range). All assays were carried out in duplicate. Data obtained were fitted using the Michaelis-Menten equation. To evaluate the action mechanism of inhibitors, we studied the dependence of Km and Vmax from inhibitors concentration, using three different inhibitor concentrations, at least. Data obtained were then analysed by double reciprocal plot (Lineweaver-Burk plot).

human recombinant AR [5] = molecular target: T2, human recombinant AR; experiment: Kinetic analysis of AR inhibition (Lineweaver-Burk and secondary plots); assay type: biochemical
Method: The kinetic analysis of compounds 4a, 4e and 4f was performed by measuring reaction rates with different L-idose concentrations s (S) in the absence and in the presence of different inhibitors concentrations. Data were analyzed by Linewever-Burk plots.

human recombinant AR [6] = molecular target: T2, human recombinant AR; experiment: Reversibility of AR inhibition (dialysis); assay type: biochemical
Method: In order to evaluate the reversibility of the inhibitory action, 8 mU of purified AR were assayed in the presence of 5 μM of compounds 4a, 4e and 4f. In these conditions less than 15% of the enzyme activity was measured in the presence of 2 mM L-idose as substrate. The mixture was then extensively dialysed on Amicon ultrafiltration membrane (cut off 10 KDa) against 10 mM sodium phosphate buffer, pH 7.0. After dialysis, the enzyme activity was again measured as above and compared to that of a mixture in the absence of inhibitor and treated in the same conditions.

[7] = residual activity, L-idose as substrate, read-out: AR % enzyme residual activity at the indicated concentration

For `O=C(O)C=CCN1C(=O)SC(=Cc2ccc(Oc3ccccc3)cc2)C1=O` [5b], the IC50 (human recombinant PTP1B [1]) was 39.7 ± 0.1 µM, the remaining activity at 10 µM (human recombinant AR [2]; [7]) was 84% and the “Inhibition of human AR (in words)” value (human recombinant AR [2]; L-idose as substrate) was “scarce inhibition”. For the same molecule, the “Inhibitory activity towards bovine lens AR” value (bovine lens AR) was “almost inactive”.

`O=C(O)CCN1C(=O)S/C(=C\c2ccc(OCCc3ccccc3)cc2)C1=O` [3f, 3-[(5Z)-2,4-Dioxo-{5-[4-(2-phenylethoxy)phenyl]methylidene}thiazolidin-3-yl]propanoic acid] showed a melting point of 160 to 163 °C, a remaining activity at 50 µM (human recombinant PTP1B [1]) of 46% and an IC50 (human recombinant AR [2]) of 50.2 ± 4.6 µM. For the same molecule, the “AR inhibitory potency relative to the corresponding acetic acid analogues 1, 2” value (human recombinant AR [2]) was “two orders of magnitude higher”.

In the case of `O=C(O)CCN1C(=O)/C(=C/c2ccc(Oc3ccccc3)cc2)SC1=S` [4b, 3-{(5Z)[4-Oxo-5-(4-phenoxyphenyl)methylidene-2-thioxothiazolidin-3-yl]}propanoic acid], the melting point is reported as 218 to 219 °C, the IC50 (human recombinant PTP1B [1]) is reported as 29.5 ± 0.4 µM and the IC50 (human recombinant AR [2]) is reported as 7.6 ± 0.6 µM.

`O=C(O)C=CCN1C(=O)SC(=Cc2ccc3ccccc3c2)C1=O` [5e, 4-{(5Z)-[5-(2-Naphtylmethylidene)-2,4-dioxothiazolidin-3-yl]}-2-butenoic acid] showed a melting point of 235 to 238 °C, an IC50 (human recombinant PTP1B [1]) of 37.1 ± 0.4 µM and a remaining activity at 10 µM (human recombinant AR [2]; [7]) of 86%. For the same molecule, the “Inhibition of human AR (in words)” value (human recombinant AR [2]; L-idose as substrate) was “scarce inhibition”.

For `O=C(O)C=CCN1C(=O)SC(=Cc2cccc(Oc3ccccc3)c2)C1=O` [5a], the IC50 (human recombinant PTP1B [1]) is listed as 42.1 ± 0.3 µM, the IC50 (human recombinant AR [2]) is listed as 3.9 ± 0.2 µM and the “Inhibitory activity towards bovine lens AR” value (bovine lens AR) is listed as “very scarce inhibitory activity”.

With `O=C(O)CCN1C(=O)/C(=C/c2cccc(Oc3ccccc3)c2)SC1=S` [4a, 3-{(5Z)[4-Oxo-5-(3-phenoxyphenyl)methylidene-2-thioxothiazolidin-3-yl]}propanoic acid] the “Reversibility of PTP1B inhibition” value (human recombinant PTP1B [3]) was “reversible inhibitors”, the IC50 (human recombinant PTP1B [1]) was 34.1 ± 0.5 µM and the “Mechanism of PTP1B inhibition” value (human recombinant PTP1B [4]) was “mixed-type non-competitive inhibitors”. The “PTP1B K′i (apparent dissociation constant, EIS complex)” value (human recombinant PTP1B [4]) was 68.9 ± 1.5 µM, the Ki (human recombinant PTP1B [4]; read-out: PTP1B Ki (apparent dissociation constant)) was 10.6 ± 1.7 µM and the “AR Ki relative to K′i” value (human recombinant AR [5]; Ki higher than K′i) was “approximately 4 fold”. For the same molecule, the “AR K′i (apparent dissociation constant, EIS complex)” value (human recombinant AR [5]; L-idose as substrate) was 1.4 ± 0.022 µM, the “Mechanism of AR inhibition” value (human recombinant AR [5]; L-idose as substrate) was “mixed-type inhibition” and the Ki (human recombinant AR [5]; L-idose as substrate, read-out: AR Ki (apparent dissociation constant)) was 5 ± 0.57 µM. For the same molecule, the “AR enzyme activity recovered after removal of the inhibitor upon extensive dialysis” value (human recombinant AR [6]; 5 μM compound before dialysis) was “more than 90%”, the “AR enzyme activity measured in the presence of compound” value (human recombinant AR [6]; 5 μM compound, 2 mM L-idose, before dialysis) was “less than 15%” and the IC50 (human recombinant AR [2]) was 2.2 ± 0.1 µM.

With `O=C(O)CCN1C(=O)/C(=C/c2ccc(OCc3ccccc3)cc2)SC1=S` [4d, 3-{(5Z)-5-[(4-Benzyloxyphenyl)methylidene]-4-oxo-2-thioxothiazolidin-3-yl}propanoic acid] the melting point was 170 to 173 °C, the IC50 (human recombinant PTP1B [1]) was 34.9 ± 0.7 µM and the IC50 (human recombinant AR [2]) was 8.4 ± 0.7 µM.

In the case of `O=C(O)CCN1C(=O)S/C(=C\c2cccc(OCc3ccccc3)c2)C1=O` [3c, 3-{(5Z)-[5-(3-Benzyloxyphenyl)methylidene]-2,4-dioxothiazolidin-3-yl}propanoic acid], the melting point is reported as 142 to 145 °C, the remaining activity at 50 µM (human recombinant PTP1B [1]) is reported as 76% and the IC50 (human recombinant AR [2]) is reported as 14.3 ± 1 µM.

Molecule `O=C(O)C=CCN1C(=O)SC(=Cc2cccc3ccccc23)C1=O` [5d, 4-{(5Z)-[5-(1-Naphtylmethylidene)-2,4-dioxothiazolidin-3-yl]}-2-butenoic acid] has a melting point of 170 to 172 °C, an IC50 (human recombinant PTP1B [1]) of 40.3 ± 0.5 µM and an IC50 (human recombinant AR [2]) of 3.7 ± 0.2 µM.

`O=C(O)CCN1C(=O)S/C(=C\c2cccc(Oc3ccccc3)c2)C1=O` [3a, 3-{(5Z)-[2,4-Dioxo-5-(3-phenoxyphenyl)methylidene]thiazolidin-3-yl}propanoic acid] showed a melting point of 177 to 180 °C, a remaining activity at 50 µM (human recombinant PTP1B [1]) of 79% and an IC50 (human recombinant AR [2]) of 11.9 ± 0.9 µM.

For `O=C(O)CCN1C(=O)S/C(=C\c2ccc(OCc3ccccc3)cc2)C1=O` [3d, 3-{(5Z)-[5-(4-Benzyloxyphenyl)methylidene]-2,4-dioxothiazolidin-3-yl}propanoic acid], the melting point was 195 to 199 °C, the remaining activity at 50 µM (human recombinant PTP1B [1]) was 77% and the “Inhibition of human PTP1B by virtual screening hit (in words)” value (human recombinant PTP1B [1]; in vitro evaluation of selected virtual hits, previously conducted) was “moderate capability to inhibit”. For the same molecule, the IC50 (human recombinant AR [2]) was 35.7 ± 3 µM.

`O=C(O)CCN1C(=O)S/C(=C\c2cccc(OCCc3ccccc3)c2)C1=O` [3e, 3-[(5Z)-2,4-Dioxo-{5-[3-(2-phenylethoxy)phenyl]methylidene}thiazolidin-3-yl]propanoic acid] gave a melting point of 130 to 133 °C, a remaining activity at 50 µM (human recombinant PTP1B [1]) of 64% and an IC50 (human recombinant AR [2]) of 27.9 ± 3.1 µM. The “AR inhibitory potency relative to the corresponding acetic acid analogues 1, 2” value (human recombinant AR [2]) was “two orders of magnitude higher”.

In the case of `O=C(O)C=CCN1C(=O)SC(=Cc2ccc(-c3ccccc3)cc2)C1=O` [5c], the IC50 (human recombinant PTP1B [1]) is reported as 34.8 ± 0.5 µM, the remaining activity at 5 µM (human recombinant AR [2]; at 5 µM, residual activity, L-idose as substrate, read-out: AR % enzyme residual activity at the indicated concentration) is reported as 88% and the “Inhibition of human AR (in words)” value (human recombinant AR [2]; L-idose as substrate) is reported as “scarce inhibition”. For the same molecule, the “Inhibitory activity towards bovine lens AR” value (bovine lens AR) was “almost inactive”.

`O=C(O)CCN1C(=O)/C(=C/c2cccc(OCc3ccccc3)c2)SC1=S` [4c, 3-{(5Z)-5-[(3-Benzyloxyphenyl)methylidene]-4-oxo-2-thioxothiazolidin-3-yl}propanoic acid] showed an IC50 (human recombinant PTP1B [1]) of 42.8 ± 0.7 µM and an IC50 (human recombinant AR [2]) of 3.8 ± 0.1 µM.

Work on `O=C(O)CCN1C(=O)S/C(=C\c2ccc(Oc3ccccc3)cc2)C1=O` [3b, 3-{(5Z)-[2,4-Dioxo-5-(4-phenoxyphenyl)methylidene]thiazolidin-3-yl}propanoic acid] yielded a melting point of 198 to 202 °C, a remaining activity at 50 µM (human recombinant PTP1B [1]) of 56% and an IC50 (human recombinant AR [2]) of 43.8 ± 7.1 µM.
